Experimental data from patent publication US20240189278A1, “NOVEL COMPOUNDS AND METHODS FOR INCREASING KLOTHO GENE EXPRESSION” (Klotho Therapeutics, Inc., priority 2017, published 2024).

Key:
AMPK = experiment: Western blot of AMPK and p-AMPK, aortas of aged mice; type: in vivo, mouse
Method: (§1) Animal study protocols. This example was performed according to the guide lines of the National Institute of Health on the care and use of laboratory animals and approved by the institutional Animal Care and Use Committee of University of Oklahoma Health Science Center. AU mice were housed in cages at room temperature (2S±PC) and were provided with Purina laboratory chow No 5001) and tap Water and lithium. 6 adult mice (12 months) and 20 old mice (24-26 months) mice were next in this study. The old (aged) mice were randomly divided into three subgroups and each group had 6 or 7 mice. One subgroup received compound H (10 mg/kg/day1, IP, Enamine LLC, Monmouth Jct., NJ) and one group received an equal volume of DMSO (dimethyl sulfoxide, 5%) and served as a control. The third group received no treatment Blood pressure was measured before and after treatment with the active agent at 1 week and 2 week. Pulse wave velocity (PWV) was measured after 2 weeks treatment with active agent all animals were sacrificed and perfused transcardially with PBS under deep anesthesia (ketamine xylazine, 90/10 mg, IP). The aortas were then quickly removed, washed and cut into pieces for subsequent analyses.
(§2) Western Blot Analysis: Protein samples from the thoracic aorta were prepared in Lysis buffer as described previously. The proteins ([…] were resolved by SOS-PAGE and transferred to a nitrocellulose membrane (Bio-Rad). The membrane was then incubated overnight (4° C.) with a primary antibody against collagen-1-elastin. M1′v1P2; MMP9, ALP (Abeam1 1:1000), TGF-1, TGF˜N3 (Santa Cmz, 1:100). RUX2, or aNTulmliu (Cell Signaling. 1:1000). Goat autimouse or goat anti rabbit horseradish peroxidase (1:2000 . . . 1:5,000; Santa Cruz Biotechnology) was used as a secondary antibody find incubated for 1 hour at room temperature. Specific proteins were detected by chemiluminescent methods using Amersham™ western blotting detection reagents (GE Healthcare, UK). Protein abundance on western blots was quantified densitometry using Image lab software (Bio-Rad, Hercules, CA).

[1] = system: mouse vascular aortic smooth muscle cells (MOVAS); experiment: Western blot of treated MOVAS cells; type: cell-based; settings: 10 μM active agent, 16 h
Method: After cells confluent, the media were switched to DMEM with or without 2° A1 serum, and the cells were then treated with 10 μM active agent or 5 nM secreted Klotho for another 16 h then harvested for western blot analysis.
as §2

LC3 = experiment: Western blot of LC3 in aortas, hearts and kidneys of old mice; type: in vivo, mouse
secreted Klotho = experiment: Western blot of secreted Klotho in kidney and serum of aged mice; type: in vivo, mouse
elastin = experiment: Elastin in aortas of aged mice (immunostaining and western blot); type: in vivo, mouse
Method: as §1, with “One subgroup received compound H (10 mg/kg/day1, IP, Enamine LLC, Monmouth Jct., NJ) and one group received an equal volume of DMSO (dimethyl sulfoxide, 5%) and served as a control.” left out, “The aortas were then quickly removed, washed and cut into pieces for subsequent analyses.” left out
Histological and Immunohistochemical Staining: Thoracic aortas were quickly excised and placed in cold (4′T) physiological saline solution. […] Aorta rings were post-fixed in 4% paraformaldehyde, embedded in paraffin and sectioned at […] thickness, Collagen was quantified by Masson' s trichrome staining as described previously. […] Blue-stained collagen areas were quantified with ImageJ (NIH, Bethesda, USA) film 4-5 regions per section. […]

aged mice [2] = experiment: Pulse wave velocity (arterial stiffness) in aged mice; type: in vivo, mouse; settings: 10 mg/kg/day IP, 2 weeks treatment
Method: as §1, with “One subgroup received compound H (10 mg/kg/day1, IP, Enamine LLC, Monmouth Jct., NJ) and one group received an equal volume of DMSO (dimethyl sulfoxide, 5%) and served as a control.” left out, “The aortas were then quickly removed, washed and cut into pieces for subsequent analyses.” left out
Measurement of Pulse Wave Velocity: Aortic PWV was measured as described previously. […] Velocities were measured with 6-mm crystal […] Doppler probes (Indus Instruments, Webster, TX) at the transverse aortic arch and 3.5 cm distal in the abdominal aorta and collected using Doppler signal processing workstation (Indus instruments). […]

TGF-β1 = experiment: Western blot of TGF-β1, aortas of aged mice; type: in vivo, mouse
Method: as §1, with “The aortas were then quickly removed, washed and cut into pieces for subsequent analyses.” left out
(§3) Western Blot Analysis: Protein samples from the thoracic aorta were prepared in Lysis buffer as described previously. […] Protein abundance on western blots was quantified densitometry using Image lab software (Bio-Rad, Hercules, CA).

DNA demethylase = DNA demethylase activity in aged mice; type: in vivo, mouse; settings: 2 weeks treatment
Method: as §1, with “One subgroup received compound H (10 mg/kg/day1, IP, Enamine LLC, Monmouth Jct., NJ) and one group received an equal volume of DMSO (dimethyl sulfoxide, 5%) and served as a control.” left out, “The aortas were then quickly removed, washed and cut into pieces for subsequent analyses.” left out
Measurement of DNA Demethylase and DNA Methylation force Activity. The DNA demethylase and DNA methyltransferase activity was measured by using DNA demethylase activity qualification kit (Abeam˜Cambridge, MA) and methyltransferase coloritnetxic assay kit (Cayman Chemical Company, Ann Arbor, Michigan). […] The absorbance was read at […] for DNA methylene activity assay and 510 nm for DNA methyltransferase activity using BioTeck Multi-Mole Microplate Readers.

RUNX2 = experiment: Western blot of RUNX2, aortas of aged mice; type: in vivo, mouse
Method: as §1, with “The aortas were then quickly removed, washed and cut into pieces for subsequent analyses.” left out
as §3

TGF-β3 = experiment: Western blot of TGF-β3, aortas of aged mice; type: in vivo, mouse
Method: as §1, with “The aortas were then quickly removed, washed and cut into pieces for subsequent analyses.” left out
as §3

aged mice [3] = experiment: Blood pressure by VPR tail-cuff method in aged mice; type: in vivo, mouse
Method: as §1
Measurement of Blood Pressure: Blood pressure was measured by the volume-pressure recording (VPR) tail-cuff method with slight (28° C.) but not heating of the tail using it CODA none-invasive blood pressure monitoring system (Kent Scientific). This method of measurement has been validated by using a telemetry system. Animals were gently handled and trained for the VPR tail-cuff measurement to minimize handling stress. No signs of stress were observed during BP measurements. The operator was also strictly trained for the measurement procedure. At least 20 stable cycles data were obtained for the result analysis for each measurement.

MMP2 = experiment: Western blot of MMP2, aortas of aged mice; type: in vivo, mouse
Method: as §1, with “The aortas were then quickly removed, washed and cut into pieces for subsequent analyses.” left out
as §3

[4] = 10 mg/kg/day IP, 2 weeks treatment

O=C(Nc1ccccc1Cl)c1c[nH]c2ccccc12 [active agent, N-(2-chlorophenyl)-Ul-indde-3-carboxamide]
decreased: Pulse wave velocity (PWV) (aged mice [2]) | TGF-β1 expression (TGF-β1) | RUNX2 expression (RUNX2) | TGF-β3 expression (TGF-β3) | Diastolic blood pressure (aged mice [3]; [4]) | Mean blood pressure (aged mice [3]; [4]) | Pulse pressure (aged mice [3]; [4]) | Systolic blood pressure (aged mice [3]; [4]) | Blood pressure (aged mice [3]; after 1 week of treatment) | MMP2 protein expression (MMP2)
markedly increased: Circulating levels of secreted Klotho (secreted Klotho; serum of aged mice)
increased: AMPK activity (AMPK; aortas of aged mice) | AMPK expression (AMPK; old mice, western blot) | p-AMPK expression (AMPK; old mice, western blot) | Elastin production (elastin) | DNA demethylase activity (DNA demethylase)
did not affect: MMP2 expression ([1]; Klotho free medium (KL(−))) | MMP9 expression ([1]; Klotho free medium (KL(−))) | TGFβ1 expression ([1]; Klotho free medium (KL(−))) | TGFβ3 expression ([1]; Klotho free medium (KL(−))) | LC3 expression (LC3; aortas of old mice) | LC3 expression (LC3; hearts of old mice) | LC3 expression (LC3; kidneys of old mice)
did not change: MMP2 expression ([1]; regular medium) | MMP9 expression ([1]; regular medium) | TGFβ1 expression ([1]; regular medium) | TGFβ3 expression ([1]; regular medium)
significantly increased: Secreted Klotho protein expression (secreted Klotho; kidney of 24-26 month-old mice)
